This note sets out measurements from patent US11278525B1, “Further molecules, compositions and methods for modulation of SIRT6” (SirTLab Corporation, priority 2017, dated 2022).

For the first experiment, the target named is SIRT6 (Homo sapiens, UniProt Q8N6T7). The experiment is described as follows: SIRT6 enzymatic activity assay with fluorophore (AMC)-labeled Lysin-myristoylated histone H3 peptide (de-myristoylation, trypsin release). It is filed as biochemical. On the set-up: six-histidine tag; made in house; host or cells: Escherichia coli BL21. As to conditions: amount tested 20 uM; Example 5, Table 9. As for the experimental part: Human recombinant SIRT6 (sequence identifier: CAG33481.1; GI:4814651) was expressed in large scale in Escherichia coli strain BL21 as a six-histidine-tagged protein, after transformation of the expression plasmid pET28-SIRT6. The SIRT6 enzyme was purified from the bacteria culture broth in a two-step strategy. The first purification step was carried out by cation exchange chromatography on a HiTrap CM-Sepharose column (GE Healthcare) using an FPLC system. The second purification step was performed by immobilized metal ion affinity chromatography (IMAC) using a cobalt affinity column (Clontech).
SIRT6, sequence (Q8N6T7 whole entry): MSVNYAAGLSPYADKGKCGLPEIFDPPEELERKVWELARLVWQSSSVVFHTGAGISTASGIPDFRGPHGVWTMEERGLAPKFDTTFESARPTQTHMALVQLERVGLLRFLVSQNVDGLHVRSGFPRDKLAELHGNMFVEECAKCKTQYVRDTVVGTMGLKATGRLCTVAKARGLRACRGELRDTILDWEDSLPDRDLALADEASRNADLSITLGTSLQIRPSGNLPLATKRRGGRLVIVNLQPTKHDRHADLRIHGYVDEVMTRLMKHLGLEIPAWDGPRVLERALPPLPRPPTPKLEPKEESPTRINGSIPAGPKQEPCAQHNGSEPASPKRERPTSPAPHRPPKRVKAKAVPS
The enzymatic activity assay is carried out in 96 or 384-well microplates using the purified recombinant SIRT6 and a fluorophore-labeled peptide substrate: 7-amino-4-methylcoumarin (AMC) that is quenched through conjugation to the C-terminal end of a Lysin-myristoylated histone H3 peptide. The activity assay procedure requires two steps, both performed in the same microplate. In the first step, the substrate is incubated with the purified SIRT6 protein along with the co-substrate nicotinamide adenine dinucleotide (NAD+). Upon de-myristoylation, the liberated ε-amino group of the lysine becomes a trypsin substrate. Treatment with trypsin in the second step releases the fluorophore resulting in an increase in fluorescence. Fluorescence intensity is measured using a fluorescent plate reader (excitation and emission at 370 nm and 450 nm, respectively). The fluorescence signal is directly proportional to SIRT6 enzymatic activity.
In the primary screening, compounds from a library (ChemDiv Inc.) were tested at a single concentration of 20 micromolar for their potential to modulate SIRT6 enzymatic activity. The assay was carried out in 384-well black well plates and all liquid handling was done using a robotic liquid handler. Purified recombinant SIRT6 (1 micromolar) was pre-incubated with each compound (or DMSO in control wells) for 15 minutes at room temperature. The first stage of the assay was initiated by adding a ‘substrate solution’ containing the myristoylated histone H3 peptide and NAD+(for final concentrations of 25 micromolar and 20 micromolar, respectively). After one hour incubation at 37° C., a Trypsin solution (6 mg/mL) was added for 30 minutes at room temperature. Fluorescence intensity was measured using a fluorescent plate reader (Tecan) with excitation at 370 nm and emission at 450 nm. The effect of each tested compound was evaluated by the change in the fluorescence intensity compared to control wells. […] To validate the primary screening results, each of the primary “hits” was re-tested, first at concentration of 20 micromolar in duplicates and later at a serial dilution ranging from 100 to 0.2 micromolar in triplicates.
Results of Assay—The results of the assay are given below in Tables 1-3.
Additional molecules were tested according to the methods and materials of Example 1. The amount tested was 20 uM for each molecule.
With `Cc1c(Cc2ccccc2)c(=O)oc2cc(OC(=O)c3ccccc3)ccc12` [Y040-7755], the “% Activity” value is 212%.

For `Cc1ccccc1C1N=C2C=NC=CN2C1NCCC(=O)NCc1cccs1` (centres unmarked) [P349-2111], the “% Activity” value stood at 84%.

For the molecule `COc1ccc(C)c2sc(N(CCN(C)C)C(=O)CCS(=O)(=O)c3ccccc3)nc12` [E676-2540], the “% Activity” value amounted to 59%.

`COC(=O)Cc1c(C)c2ccc(OC(=O)c3cccc(OC)c3)c(C)c2oc1=O` [Y040-3572]: the “% Activity” value is on record as 396%.

Consider `CCCCCCOc1ccc(C(=O)Nc2nc3ccc(OC)cc3s2)cc1` [0938-8060], for which the “% Activity” value is on record as 47%.

For the molecule `Cc1ccc(COc2ccc3c4c(c(=O)oc3c2C)CCC4)cc1` [3338-2074], the “% Activity” value is given as 21%.

On to `CNC(=O)N1CCc2c(sc3ncnc(NCCCOC)c23)C1` [S324-0365], for which the “% Activity” value turned out to be 60%.

`Cc1c(Cc2ccccc2)c(=O)oc2c(C)c(OC(=O)C3CC3)ccc12` [Y040-1980]: the “% Activity” value was found to be 30%.

Take `COc1cc(C(=O)Oc2ccc3c4c(c(=O)oc3c2)CCC4)cc(OC)c1OC` [2712-4061]: the “% Activity” value is given as 52%.

On to `CCCCCCc1c(C)c2ccc(OC(C)=O)c(C)c2oc1=O` [Y040-4544], for which the “% Activity” value was 33%.

`COc1cccc2sc(N(CCCN(C)C)C(=O)CCSc3ccccc3)nc12` [E677-1137]: the “% Activity” value stood at 111%.

For `CN(C)CCCNC(=O)C1CCN(c2nc3ccc(-c4ccccc4)nc3s2)CC1` [T387-0668], the “% Activity” value stood at 51%.

For `Cc1cc(C)c2sc(N(Cc3cccnc3)C(=O)CCS(=O)(=O)c3ccccc3)nc2c1` [G856-7064], the “% Activity” value was 61%.

Consider `COc1cccc2sc(N(CCCN(C)C)C(=O)CCOc3ccccc3)nc12` [E677-1072], for which the “% Activity” value worked out at 117%.

On to `CN(C)CCNC(=O)C1CCN(c2nc3ccc(-c4cncnc4)nc3s2)CC1` [T387-0941], for which the “% Activity” value stood at 49%.

Turning to `CN1CCN(C(=O)C2CCN(c3nc4ccc(-c5ccccc5)nc4s3)CC2)CC1` [T387-0661], the “% Activity” value is recorded as 67%.

Regarding `CCNC(=O)N1CCc2c(sc3ncnc(NCC)c23)C1` [S324-0342], the “% Activity” value worked out at 30%.

Regarding `Cc1nc2cc(-c3ccccc3)nn2c(C(C)(C)C)c1C` [5197-0134], the “% Activity” value is on record as 21%.

On to `CCCc1cc2c(=O)c(-c3ccc4c(c3)OCO4)coc2cc1OC(C)=O` [2188-3841], for which the “% Activity” value worked out at 21%.

With `COc1ccc(C(=O)Oc2ccc3c(C)c(Cc4ccccc4)c(=O)oc3c2C)cc1` [Y040-7713], the “% Activity” value was found to be 21%.

With `CCCCCCc1c(C)c2cc3c(-c4ccc(F)cc4)coc3c(C)c2oc1=O` [Y041-6500], the “% Activity” value is listed as 21%.

`CC(=O)Oc1ccc2c3c(c(=O)oc2c1C)CCCC3` [3330-4541]: the “% Activity” value stood at 105%.

Take `CN(C)CCCN(C(=O)CCOc1ccccc1)c1nc2ccc(Br)cc2s1` [E677-0691]: the “% Activity” value was 28%.

As for `O=C(C1=CC=CC1)n1nc(-c2ccccc2)nc1NCc1ccco1` [6855-0211], the “% Activity” value was 77%.

As to `CCN(CC)CCN(C(=O)CCS(=O)(=O)c1ccccc1)c1nc2c(C)cccc2s1` [E676-3810], the “% Activity” value turned out to be 121%.

As for `Cc1c(Cc2ccccc2)c(=O)oc2cc(OCc3c(Cl)cccc3Cl)ccc12` [Y040-7747], the “% Activity” value came to 21%.

For the molecule `CCOC(=O)CCc1c(C)c2ccc(OC(=O)C3CCCCC3)c(C)c2oc1=O` [Y04-4165], the “% Activity” value was found to be 529%.

Regarding `COCCCNC(=O)C1CCN(c2nc3ccc(-c4cncnc4)nc3s2)CC1` [T387-0917], the “% Activity” value came to 65%.

Consider `CN(C)CCCN(C(=O)CCS(=O)(=O)c1ccccc1)c1nc2c(F)cccc2s1` [E677-1397], for which the “% Activity” value came to 95%.

Take `Cc1c(OC(=O)C2CCCCC2)ccc2c3c(c(=O)oc12)CCCC3` [Y040-0748]: the “% Activity” value turned out to be 71%.

As to `Cc1cc(C)c2c(N)c(-c3nnc(-c4ccccc4)o3)sc2n1` [8018-7776], the “% Activity” value amounted to 42%.

As to `CCN(CC)C(=O)C1CCN(C2=Nc3ccc(-c4ccncc4)nc3C2)CC1` [T387-1131], the “% Activity” value came out at 85%.

Turning to `COc1cccc2sc(N(CCCN(C)C)C(=O)CCS(=O)(=O)c3ccccc3)nc12` [E677-1143], the “% Activity” value is reported as 111%.

In the case of `Cc1c(Cc2ccccc2)c(=O)oc2c(C)c(OC(=O)c3ccccc3)ccc12` [Y040-7711], the “% Activity” value is given as 41%.

As for `CC(=O)Oc1ccc2c(C)c(Cc3ccccc3)c(=O)oc2c1C` [2259-4062], the “% Activity” value is reported as 137%.

On to `Cc1c(C)c2ccc(OC(=O)C3CCCCC3)c(C)c2oc1=O` [Y040-1862], for which the “% Activity” value is recorded as 237%.

With `Cc1ccc(C(=O)Oc2ccc3c4c(c(=O)oc3c2C)CCC4)cc1` [Y040-4193], the “% Activity” value is listed as 53%.

Take `CCN(CC)CCN(C(=O)CCOc1ccccc1)c1nc2c(F)cccc2s1` [E676-4120]: the “% Activity” value is on record as 60%.

`COc1cccc(C(=O)Oc2ccc3c4c(c(=O)oc3c2C)CCCC4)c1` [Y040-0750]: the “% Activity” value is listed as 33%.

For the molecule `Cc1c(Cc2ccccc2)c(=O)oc2c(C)c(OC(=O)C3CCCCC3)ccc12` [Y040-7709], the “% Activity” value stood at 145%.

Take `CCCc1ccc(-c2ccc(C(=O)Nc3nc4ccc(C)cc4s3)cc2)nc1` [0703-6407]: the “% Activity” value was 40%.

Still in this experiment, the particulars now being: compound 20 uM; percentage of signal increase relative to control wells; Tables 1-2.
For `CCC(=O)Nc1ccc(-c2cc(C(=O)NCCCN3CCCCCC3)c3ccccc3n2)cc1` [L036-0162], the “% activity 20 uM” value is given as 62%.

`O=c1[nH]c2ccc(Cl)cc2c(-c2ccccc2)c1Nc1ccc(Oc2ccccc2)cc1` [8013-3307]: the “% activity 20 uM” value was found to be 24%.

As for `CCC(=O)Nc1ccc(-c2cc(C(=O)NCCCN3CCCC(C)C3)c3ccccc3n2)cc1` (centres unmarked) [L036-0174], the “% activity 20 uM” value is recorded as 61%.

The experiment is the same for the next values; noted with them: compound 100 uM; percentage of signal increase relative to control wells; Tables 1-2.
Turning to `Cc1ccc(Nc2nc(C)c(C(=O)Nc3cccc(C(C)C)c3)s2)cc1` [M830-6572], the “% activity Max. conc. 100 uM” value was found to be 11%.

As for `N#Cc1cccc(-c2cn3c(n2)N(C(=O)c2ccncc2)CCC3)c1` [P950-0537], the “% activity Max. conc. 100 uM” value came out at 45%.

`CC1=NCC(c2ccc(O)cc2O)=C1c1ccc(Cl)cc1` [8020-1200]: the “% activity Max. conc. 100 uM” value is 94%.

In the case of `Cc1cc(Nc2ccc(NC(=O)Nc3ccc4c(c3)CCCO4)cc2)nc(NC2CCCCC2)n1` [D577-0290], the “% activity Max. conc. 100 uM” value amounted to 22%.

For the molecule `CCC(=O)Nc1ccc(-c2cc(C(=O)NCCCN3CCCCCC3)c3ccccc3n2)cc1` [L036-0162], the “% activity Max. conc. 100 uM” value stood at 92%.

`C=C(Cc1ccc2c(c1)C(C)=CC(C)(C)N2)Cc1cccc2ccccc12` [4477-0762]: the “% activity Max. conc. 100 uM” value was found to be 56%.

For the molecule `Cc1nc2sc(-c3nc4ccccc4[nH]3)c(N)c2c(C)c1Cl` [8012-5593], the “% activity Max. conc. 100 uM” value is 59%.

`Cn1c(-c2ccc3[nH]c(-c4ccc(N)cc4)nc3c2)nc2cc(N)ccc21` [6843-3168]: the “% activity Max. conc. 100 uM” value was determined as 162%.

`COCCNc1oc2c(c1-c1ccc(C)cc1)c(=O)oc1c(C)cccc12` [F025-0102]: the “% activity Max. conc. 100 uM” value was 111%.

As to `Cc1ccccc1CSc1ncc(Sc2ccccc2)c(C(=O)NCc2ccccc2)n1` [D506-0127], the “% activity Max. conc. 100 uM” value was determined as 65%.

Turning to `Cc1cc(NC(=O)CSc2nnc(-c3sc4ncccc4c3N)n2C)ccc1Cl` [D549-0050], the “% activity Max. conc. 100 uM” value was 47%.

Take `O=c1cc(O)c2sc3nc4c(cc3c2[nH]1)CCCCC4` [8018-3339]: the “% activity Max. conc. 100 uM” value is reported as 75%.

On to `O=C(NCc1cccc(Cl)c1)c1noc2c1CSc1ccccc1-2` [E146-0990], for which the “% activity Max. conc. 100 uM” value worked out at 137%.

Regarding `O=c1[nH]c2ccc(Cl)cc2c(-c2ccccc2)c1Nc1ccc(Oc2ccccc2)cc1` [8013-3307], the “% activity Max. conc. 100 uM” value came out at 86%.

Regarding `COc1ccc(-c2csc3c(NN)ncnc23)cc1` [C201-1744], the “% activity Max. conc. 100 uM” value was 22%.

Take `C=C(CN1c2ccccc2C(C)(C)C12C=Cc1c(ccc3ccccc13)C2)NC` (centres unmarked) [8008-8279]: the “% activity Max. conc. 100 uM” value is on record as 27%.

Take `CCC(=O)Nc1ccc(-c2cc(C(=O)NCCCN3CCCC(C)C3)c3ccccc3n2)cc1` (centres unmarked) [L036-0174]: the “% activity Max. conc. 100 uM” value came out at 87%.

On to `CC(C)(C)c1ccc(C(=O)Nc2ccc3nnc(C4CCC4)n3c2)cc1` [M723-1403], for which the “% activity Max. conc. 100 uM” value is listed as 87%.

With `COc1ccc(-c2nn3c(C)nnc3s2)cc1N` [8018-6508], the “% activity Max. conc. 100 uM” value stood at 18%.

As for `C=C(CN1C(=C)C(c2nc(-c3ccccc3)no2)=C(C)C=C1C)NCCc1ccc(CC)c(CC)c1` [G744-0071], the “% activity Max. conc. 100 uM” value is recorded as 73%.

Take `COc1cc(NC(=O)c2csc(-c3cn(C)c4ncccc34)n2)cc(OC)c1` [P613-0273]: the “% activity Max. conc. 100 uM” value is reported as 37%.
